The subject of one test is S-3769 strain. In words: Combinational effect with antibacterial agent against Pseudomonas aeruginosa (Test Examples 2 and 4): S-3769 strain with AMK or GM at 1/4 MIC, EC99. Type of test: cell-based. The conditions noted are these: for EC99, combinational effect with AMK, S-3769 strain / EC99, S-3769 strain, AMK: combined with AMK at 1/4 MIC; for EC99, combinational effect with AMK, S-3769 strain / EC99, combinational effect with GM, S-3769 strain: Test Example 4; for EC99, combinational effect with GM, S-3769 strain / EC99, S-3769 strain, GM: combined with GM at 1/4 MIC; for EC99, S-3769 strain, AMK / EC99, S-3769 strain, GM: Table 52, Test Example 2, 16 to 20 hours culture, OD595. The method in brief: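 EC99, the lowest test-compound concentration inhibiting growth by ≥99% (OD595), was measured with aminoglycoside AMK or GM held at ¼ MIC. Strain S-3769, a MexY-overexpressing clinical isolate, was cultured in CAMHB at 10^4 to 5 CFU/well for 16–20 h; compound range 0–800 μM.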

In a further test the test system is mexB (PA) strain. In words: Combinational effect with antibacterial agent against Pseudomonas aeruginosa (Test Examples 2 and 4): mexB (PA) strain with LVFX, TC or AZT at 1/4 MIC, EC99. Type of test: cell-based. The conditions noted are these: for EC99, combinational effect with AZT, mexB (PA) / EC99, combinational effect with LVFX, mexB (PA) / EC99, combinational effect with TC, mexB (PA): mexB (PA) strain, Test Example 4; for EC99, combinational effect with AZT, mexB (PA) / EC99, mexB (PA), AZT: combined with AZT at 1/4 MIC; for EC99, combinational effect with LVFX, mexB (PA) / EC99, mexB (PA), LVFX: combined with LVFX at 1/4 MIC; for EC99, combinational effect with TC, mexB (PA) / EC99, mexB (PA), TC: combined with TC at 1/4 MIC; for EC99, mexB (PA), AZT / EC99, mexB (PA), LVFX / EC99, mexB (PA), TC: Table 52, Test Example 2, 16 to 20 hours culture, OD595. The procedure, abridged:
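EC99 denotes the minimum test-compound concentration (range 0–800 μM) that suppresses ≥99% of growth, measured by OD595, when combined with ¼ MIC levofloxacin (LVFX), tetracycline or aztreonam. The efflux-pump mutant mexB (PA), expressing mainly MexAB-OprM, was inoculated at 10^4–5 CFU/well in CAMHB for 16–20 h.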

Where a name gives a salt, the structure may show the parent alone.

Turning to `CCSc1ccc(O)cc1CN1CCN(C(=O)[C@H](N)C2CCN(CCc3cc(Cl)ccc3-c3cc(O)cc(F)c3)CC2)CC1` [Example 620, (R)-2-amino-2-(1-(2-(4-chloro-3′-fluoro-5′-hydroxy-[1,1′-biphenyl]-2-yl)ethyl)piperidin-4-yl)-1-(4-(2-(ethylthio)-5-hydroxybenzyl)piperazin-1-yl)ethan-1-one], in the test on S-3769 strain, the “EC99, combinational effect with AMK, S-3769 strain” value (“EC99, combinational effect with AMK” for short) is given as “S (EC99≤12.5 μM)” and the “EC99, combinational effect with GM, S-3769 strain” value (from here on “EC99, combinational effect with GM”) was “S (EC99≤12.5 μM)”. Besides, in the test on mexB (PA) strain, the “EC99, combinational effect with AZT, mexB (PA)” value (“EC99 … with AZT, mexB (PA)” for short) is given as “S (EC99≤12.5 μM)”; the “EC99, combinational effect with LVFX, mexB (PA)” value (“EC99 … with LVFX, mexB (PA)” below) is “S (EC99≤12.5 μM)”; the “EC99, combinational effect with TC, mexB (PA)” value (“EC99 … with TC, mexB (PA)” below) is given as “S (EC99≤12.5 μM)”.

Regarding `CSc1sccc1CN1CCN(C(=O)[C@H](N)C2CCN(CCc3cc(Cl)ccc3-c3ccccc3)CC2)CC1` [Example 531, Hydrobromide of (R)-2-amino-2-(1-(2-(4-chloro-[1,1-biphenyl]-2-yl)ethyl)piperidin-4-yl)-1-(4-((2-(methylthio)thiophen-2-yl)methyl)piperazin-1-yl)ethan-1-one], in the test on S-3769 strain, the “EC99, combinational effect with AMK” value is given as “A (12.5 μM<EC99≤25 μM)” and the “EC99, combinational effect with GM” value is “A (12.5 μM<EC99≤25 μM)”. In the test on mexB (PA) strain, the “EC99 … with AZT, mexB (PA)” value was “B (25 μM<EC99≤100 μM)”; the “EC99 … with LVFX, mexB (PA)” value was “S (EC99≤12.5 μM)”; the “EC99 … with TC, mexB (PA)” value is “A (12.5 μM<EC99≤25 μM)”.

As to `CCOc1cccc(F)c1CN1CCN(C(=O)[C@H](N)C2CCN(CCc3cc(Cl)ccc3-c3cnccc3N)CC2)CC1` [Example 93, (R)-2-amino-2-(1-(2-(4-aminopyridin-3-yl)-5-chlorophenethyl)piperidin-4-yl)-1-(4-(2-ethoxy-6-fluorobenzyl)piperazin-1-yl)ethan-1-one], in the test with S-3769 strain, the “EC99, S-3769 strain, AMK” value was “B (25 μM<EC99≤100 μM)” and the “EC99, S-3769 strain, GM” value is given as “B (25 μM<EC99≤100 μM)”. For the same compound, in the test with mexB (PA) strain, the “EC99, mexB (PA), AZT” value is “S (EC99≤12.5 μM)”; the “EC99, mexB (PA), LVFX” value is reported as “S (EC99≤12.5 μM)”; the “EC99, mexB (PA), TC” value is “S (EC99≤12.5 μM)”.

Regarding `CSc1ccc(O)cc1CN1CCN(C(=O)[C@H](N)C2CCN(CCc3cc(Cl)ccc3-c3ccccc3)CC2)CC1` [Example 587, Hydrochloride of (R)-2-amino-2-(1-(2-(4-chloro-[1,1-biphenyl]-2-yl)ethyl)piperidin-4-yl)-1-(4-(5-hydroxy-2-(methylthio)benzyl)piperazin-1-yl) ethan-1-one], in the test on S-3769 strain, the “EC99, combinational effect with AMK” value is listed as “A (12.5 μM<EC99≤25 μM)” and the “EC99, combinational effect with GM” value was “A (12.5 μM<EC99≤25 μM)”. In the test with mexB (PA) strain, the “EC99 … with AZT, mexB (PA)” value is “S (EC99≤12.5 μM)”; the “EC99 … with LVFX, mexB (PA)” value is “S (EC99≤12.5 μM)”; the “EC99 … with TC, mexB (PA)” value was “S (EC99≤12.5 μM)”.

As to `CCOc1cccc(F)c1CN1CCN(C(=O)[C@H](N)C2CCN(CCc3cc(Cl)ccc3-c3cccc(NC)c3)CC2)CC1` [Example 561, Hydrobromide of (R)-2-amino-2-(1-(2-(4-chloro-3′-(methylamino)-[1,1-biphenyl]-2-yl)ethyl)piperidin-4-yl)-1-(4-(2-ethoxy-6-fluorobenzyl)piperazin-1-yl)ethan-1-one], in the test with S-3769 strain, the “EC99, combinational effect with AMK” value is reported as “S (EC99≤12.5 μM)” and the “EC99, combinational effect with GM” value is reported as “S (EC99≤12.5 μM)”. In addition, in the test on mexB (PA) strain, the “EC99 … with AZT, mexB (PA)” value is “S (EC99≤12.5 μM)”; the “EC99 … with LVFX, mexB (PA)” value is on record as “S (EC99≤12.5 μM)”; the “EC99 … with TC, mexB (PA)” value was “A (12.5 μM<EC99≤25 μM)”.

Regarding `CCOc1cccc(F)c1CN1CCN(C(=O)[C@H](N)C2CCN(CCc3c(-c4ccccc4)ccc(Cl)c3F)CC2)CC1` [Example 79, Hydrobromide of (R)-2-amino-2-(1-(2-(4-chloro-3-fluoro-[1,1′-biphenyl]-2-yl)ethyl)piperidin-4-yl)-1-(4-(2-ethoxy-6-fluorobenzyl)piperazin-1-yl)ethan-1-one], in the test with S-3769 strain, the “EC99, S-3769 strain, AMK” value is on record as “S (EC99≤12.5 μM)” and the “EC99, S-3769 strain, GM” value is given as “A (12.5 μM<EC99≤25 μM)”. Moreover, in the test on mexB (PA) strain, the “EC99, mexB (PA), AZT” value was “B (25 μM<EC99≤100 μM)”; the “EC99, mexB (PA), LVFX” value is reported as “B (25 μM<EC99≤100 μM)”; the “EC99, mexB (PA), TC” value was “B (25 μM<EC99≤100 μM)”.

For `N[C@@H](C(=O)N1CCN(Cc2ccccc2OCC(F)(F)F)CC1)C1CCN(CCc2cc(Cl)ccc2-c2ccccc2)CC1` [Example 2, Hydrobromide of (R)-2-amino-2-(1-(2-(4-chloro-[1,1′-biphenyl]-2-yl)ethyl)piperidin-4-yl)-1-(4-(2-(2,2,2-trifluoroethoxy)benzyl)piperazin-1-yl) ethan-1-one], in the test with S-3769 strain, the “EC99, S-3769 strain, AMK” value is “S (EC99≤12.5 μM)” and the “EC99, S-3769 strain, GM” value is recorded as “S (EC99≤12.5 μM)”. Also, in the test with mexB (PA) strain, the “EC99, mexB (PA), AZT” value is on record as “B (25 μM<EC99≤100 μM)”; the “EC99, mexB (PA), LVFX” value is “C (100 μM<EC99)”; the “EC99, mexB (PA), TC” value is “B (25 μM<EC99≤100 μM)”.

Turning to `CSc1ccccc1CN1CCN(C(=O)[C@H](N)C2CCN(CCc3cc(Cl)ccc3-c3cc(O)cc(Cl)c3)CC2)CC1` [Example 610, (R)-2-amino-2-(1-(2-(3′-4-dichloro-5′-hydroxy-[1,1′-biphenyl]-2-yl)ethyl)piperidin-4-yl)-1-(4-(2-(methylthio)benzyl)piperazin-1-yl)ethan-1-one], in the test with S-3769 strain, the “EC99, combinational effect with AMK” value is “S (EC99≤12.5 μM)” and the “EC99, combinational effect with GM” value is “S (EC99≤12.5 μM)”. For the same compound, in the test on mexB (PA) strain, the “EC99 … with AZT, mexB (PA)” value was “S (EC99≤12.5 μM)”; the “EC99 … with LVFX, mexB (PA)” value is given as “S (EC99≤12.5 μM)”; the “EC99 … with TC, mexB (PA)” value is recorded as “S (EC99≤12.5 μM)”.

For `N[C@@H](C(=O)N1CCN(Cc2ccccc2SC(F)(F)F)CC1)C1CCN(CCc2cc(Cl)ccc2-c2ccccc2)CC1` [Example 529, Hydrobromide of (R)-2-amino-2-(1-(2-(4-chloro-[1,1-biphenyl]-2-yl)ethyl)piperidin-4-yl)-1-(4-(2-((trifluoromethyl)thio)benzyl)piperazin-1-yl)ethan-1-one], in the test with S-3769 strain, the “EC99, combinational effect with AMK” value is recorded as “A (12.5 μM<EC99≤25 μM)” and the “EC99, combinational effect with GM” value is “B (25 μM<EC99≤100 μM)”. In addition, in the test on mexB (PA) strain, the “EC99 … with AZT, mexB (PA)” value is “C (100 μM<EC99)”; the “EC99 … with LVFX, mexB (PA)” value is “A (12.5 μM<EC99≤25 μM)”; the “EC99 … with TC, mexB (PA)” value is listed as “A (12.5 μM<EC99≤25 μM)”.

Turning to `CCOc1cccc(F)c1CN1CCN(C(=O)[C@H](N)C2CCN(CCc3c[nH]c4ccccc34)CC2)CC1` [Example 148, hydrobromide of (R)-2-(1-(2-(1H-indol-3-yl)ethyl)piperidin-4-yl)-2-amino-1-(4-(2-ethoxy-6-fluorobenzyl)piperazin-1-yl)ethan-1-one], in the test with S-3769 strain, the “EC99, S-3769 strain, AMK” value is given as “S (EC99≤12.5 μM)” and the “EC99, S-3769 strain, GM” value was “S (EC99≤12.5 μM)”. In the test with mexB (PA) strain, the “EC99, mexB (PA), AZT” value was “C (100 μM<EC99)”; the “EC99, mexB (PA), LVFX” value is recorded as “C (100 μM<EC99)”; the “EC99, mexB (PA), TC” value was “B (25 μM<EC99≤100 μM)”.

For the origin of these results see patent US20250326744A1, “PIPERAZINE DERIVATIVE OR SALT THEREOF, AND PHARMACEUTICAL COMPOSITION” (priority 2022, published 2025).
